Here are results for 17 compounds from article PMC6711126, “Novel 2-phenoxypyrido[3,2-b]pyrazin-3(4H)-one derivatives as potent and selective aldose reductase inhibitors with antioxidant activity” (Journal of Enzyme Inhibition and Medicinal Chemistry, 2019).

Molecules are shown by their SMILES. Where “and” joins values, the source holds several entries; their conditions need not be identical. Equal entries are not always repeated.

For series [1], the target named is T1, AKR1B1 isolated from rat lenses (Rattus norvegicus, UniProt P07943).
T1 construct: AKR1B1 isolated from rat lenses; from tissue; host or cells: rat lenses
The series is described as follows: AKR1B1 (aldose reductase) inhibition, NADPH oxidation with D,L-glyceraldehyde as substrate. Particulars: rat lens enzyme, pH 6.2, 30 °C. It counts as biochemical. As to the method:
(§1) Besides, the inhibitory activity of aldehyde reductase (AKR1A1) isolated from rat kidneys was also investigated to evaluate the selectivity for AKR1B1. The enzyme AKR1A1 is closely related to AKR1B1, and plays an important role in physiological detoxification. […] Additionally, the antioxidant activity was assessed by using the model reaction with the stable free radical of 2,2-diphenyl-1-picrylhydrazyl (DPPH) according to the modified method, which was first employed by Blois[23].
The AKR1B1 inhibition activity was performed in a reaction mixture containing 0.25 mL NADPH (0.10 mM), 0.25 mL sodium phosphate buffer (pH = 6.2, 0.1 M), 0.1 mL enzyme extract, 0.15 mL deionized water, and 0.25 mL D,L-glyceraldehyde (10 mM) as substrate in a final volume of 1 mL. Before adding to D,L-glyceraldehyde, the reaction mixture was incubated at 30 °C for 10 min, and then the substrate was added to start the reaction, which was monitored for 4 min.
(§2) The inhibitory activity of the newly synthesized compounds against AKR1B1 and AKR1A1 was assayed by adding 5 μL of the inhibitor solution to the reaction mixture described above. All compounds were dissolved in dimethyl sulfoxide (DMSO) and diluted with deionized H2O. To correct for the nonenzymatic oxidation of NADPH, the rate of NADPH oxidation in the presence of all the reaction mixture components except the substrate was subtracted from each experimental rate. The inhibitory effect of the synthetic compounds was routinely estimated at 10^-4 M (the concentration is referenced to that of the compound in the reaction mixture).

Series [2] concerns the target T2, AKR1A1 isolated from rat kidneys (Rattus norvegicus, UniProt P51635).
T2 construct: aldehyde reductase (AKR1A1) isolated from rat kidneys; from tissue; host or cells: rat kidneys
T2 sequence (P51635 1-325): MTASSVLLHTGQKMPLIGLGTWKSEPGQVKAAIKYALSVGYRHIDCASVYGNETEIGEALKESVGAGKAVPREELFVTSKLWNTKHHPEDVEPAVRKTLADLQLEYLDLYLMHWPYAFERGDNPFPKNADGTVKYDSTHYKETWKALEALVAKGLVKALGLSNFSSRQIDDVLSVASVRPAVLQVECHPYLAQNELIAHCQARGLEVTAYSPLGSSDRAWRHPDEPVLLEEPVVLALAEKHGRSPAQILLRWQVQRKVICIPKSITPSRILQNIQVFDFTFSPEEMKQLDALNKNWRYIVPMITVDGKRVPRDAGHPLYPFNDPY
The series is described as follows: AKR1A1 (aldehyde reductase) inhibition, NADPH oxidation with sodium D-glucuronate as substrate. In kind it is biochemical. As to conditions: rat kidney enzyme, pH 7.2, 37 °C. As for the experimental part:
as §1, with “All new synthetic compounds 4a–o were tested for their potential inhibitory activity of AKR1B1 isolated from rat lenses. Besides,” for “Besides,”
The AKR1A1 inhibition activity was performed in a reaction mixture containing 0.25 mL NADPH (0.12 mM), 0.1 mL enzyme extract, 0.25 mL sodium phosphate buffer (pH = 7.2, 0.1 M), 0.15 mL deionized water, and 0.25 mL sodium D-glucuronate (20 mM) as substrate in a final volume of 1 mL. Before adding to sodium D-glucuronate, the reaction mixture was incubated at 37 °C for 10 min, and then the substrate was added to start the reaction, which was monitored for 4 min.
as §2

Series [3] is described as follows: DPPH radical scavenging assay. As to conditions: methanol, 517 nm; for DPPH/sca% 100 μM: compound 100 μM; for DPPH/sca% 50 μM: compound 50 μM; for DPPH/sca% 10 μM: compound 10 μM. As to the method: as §1, with “All new synthetic compounds 4a–o were tested for their potential inhibitory activity of AKR1B1 isolated from rat lenses. Besides,” for “Besides,”
The antioxidant activity of all synthesised compounds was determined with the DPPH model reaction and […] (Trolox) was employed as a positive control (Table 2).
To investigate the antiradical activity of target compounds in a homogeneous system, a method based on the scavenging of the stable free radical DPPH was employed. A 100 μL of methanolic solution of various compounds with different concentrations was added to 1 mL DPPH methanolic solution (2.5 × 10^-5 g/mL) and 1.9 ml methanol solution to give final concentrations of 0.1, 0.05, 0.01 mM for the tested compounds, respectively. After vortexing thoroughly and leaving for 30 min at room temperature, the optical density was measured at λ 517 nm using the Shimadzu UV-1800 spectrophotometer. The tested compounds and the reference (Trolox) were dissolved in methanol, and after 240 min (steady state), the percentage of DPPH radical scavenging was determined by the equation as shown below. The experiments were performed in triplicate.

Turning to `O=C(O)Cn1c(=O)c(Oc2ccccc2)nc2cccnc21` [4a, 2-(3-oxo-2-phenoxypyrido[3,2-b]pyrazin-4(3H)-yl)acetic acid], the melting point lay within 239 to 244 °C. Moreover, in series [1], the IC50 stood at 8570 ± 523 nM. It took 26.9 ± 1.45 µM to reach half-maximal inhibition in series [2] (IC50). For the same compound, in series [3], the “DPPH/sca% 100 μM” value is listed as 6.9 ± 1.2%.

With `COc1ccc(Oc2nc3cccnc3n(CC(=O)O)c2=O)cc1` [4b, 2-(2-(4-methoxyphenoxy)-3-oxopyrido[3,2-b]pyrazin-4(3H)-yl)acetic acid], the melting point lay within 234 to 242 °C. For the same compound, the IC50 in series [1] is 2680 ± 199 nM. In series [2], this compound had an IC50 of 19.8 ± 1.32 µM. Further, the “DPPH/sca% 100 μM” value in series [3] is given as 18.9 ± 0.8%.

In turn, `COc1ccc(Oc2nc3cccnc3n(CC(=O)O)c2=O)cc1OC` [4c, 2-(2-(3,4-dimethoxyphenoxy)-3-oxopyrido[3,2-b]pyrazin-4(3H)-yl)acetic acid] showed a melting point of 241 to 251 °C. Also, in series [1], inhibition was half-maximal at 5680 ± 608 nM (IC50). Further, the IC50 in series [2] amounted to 17.6 ± 1.02 µM. Besides, the “DPPH/sca% 100 μM” value in series [3] was 21.2 ± 1.5%.

Compound `COc1cc(OC)cc(Oc2nc3cccnc3n(CC(=O)O)c2=O)c1` [4d, 2-(2-(3,5-dimethoxyphenoxy)-3-oxopyrido[3,2-b]pyrazin-4(3H)-yl)acetic acid] came in with a melting point of 241 to 247 °C. In addition, the IC50 in series [1] turned out to be 4300 ± 288 nM. The IC50 in series [2] was found to be 21.5 ± 1.81 µM. Also, the “DPPH/sca% 100 μM” value in series [3] worked out at 25.9 ± 1.3%.

Regarding `COc1cc(Oc2nc3cccnc3n(CC(=O)O)c2=O)cc(OC)c1OC` [4e, 2-(3-oxo-2-(3,4,5-trimethoxyphenoxy)pyrido[3,2-b]pyrazin-4(3H)-yl)acetic acid], the melting point fell in the range of 235 to 243 °C. In addition, in series [1], it took 7570 ± 431 nM to reach half-maximal inhibition (IC50). Further, the IC50 in series [2] was determined as 20.9 ± 1.21 µM. Besides, in series [3], the “DPPH/sca% 100 μM” value was found to be 17.8 ± 0.9%.

Regarding `O=C(O)Cn1c(=O)c(Oc2ccc(O)cc2)nc2cccnc21` [4f, 2-(2-(4-hydroxyphenoxy)-3-oxopyrido[3,2-b]pyrazin-4(3H)-yl)acetic acid], the melting point is 231 to 239 °C. In series [1], this compound returned an IC50 of 121 ± 10 nM. Half-maximal inhibition in series [2] (IC50) required 15.9 ± 0.781 µM. In series [3], the “DPPH/sca% 100 μM” value is listed as 37.7 ± 1.0%.

The compound `COc1ccc(Oc2nc3cccnc3n(CC(=O)O)c2=O)cc1O` [4g, 2-(2-(3-hydroxy-4-methoxyphenoxy)-3-oxopyrido[3,2-b]pyrazin-4(3H)-yl)acetic acid] showed a melting point of 232 to 236 °C. Moreover, the IC50 in series [1] is 2500 ± 203 nM. Further, the IC50 in series [2] was 19.3 ± 1.81 µM. Further, in series [3], the “DPPH/sca% 50 μM” value is 21.5 ± 1.2% and the “DPPH/sca% 100 μM” value came to 54.8 ± 1.6%.

`O=C(O)Cn1c(=O)c(Oc2ccc(O)c(O)c2)nc2cccnc21` [4h, 2-(2-(3,4-dihydroxyphenoxy)-3-oxopyrido[3,2-b]pyrazin-4(3H)-yl)acetic acid] had a melting point of 231 to 236 °C. For the same compound, half-maximal inhibition in series [1] (IC50) required 305 ± 22 nM. Inhibition in series [2] was half-maximal at 16.9 ± 0.692 µM (IC50). Further, in series [3], the “DPPH/sca% 50 μM” value was 44.1 ± 2.3% and the “DPPH/sca% 100 μM” value is reported as 74.6 ± 1.4%.

Compound `COc1cc(O)cc(Oc2nc3cccnc3n(CC(=O)O)c2=O)c1` [4i, 2-(2-(3-hydroxy-5-methoxyphenoxy)-3-oxopyrido[3,2-b]pyrazin-4(3H)-yl)acetic acid] registered a melting point of 229 to 232 °C. Also, the IC50 in series [1] is 2850 ± 31 nM. In addition, the IC50 in series [2] was 15.1 ± 0.924 µM. For the same compound, in series [3], the “DPPH/sca% 50 μM” value worked out at 45.2 ± 1.8% and the “DPPH/sca% 100 μM” value is on record as 78.4 ± 0.7%.

`O=C(O)Cn1c(=O)c(Oc2cc(O)cc(O)c2)nc2cccnc21` [4j, 2-(2-(3,5-dihydroxyphenoxy)-3-oxopyrido[3,2-b]pyrazin-4(3H)-yl)acetic acid] registered a melting point of 231 to 237 °C. For the same compound, in series [1], the IC50 is 87 ± 7 nM. Also, in series [2], half-maximal inhibition (IC50) was put at 20.8 ± 1.5 µM. In series [3], the “DPPH/sca% 10 μM” value was found to be 45.3 ± 1.9%, the “DPPH/sca% 50 μM” value was found to be 77.2 ± 1.5% and the “DPPH/sca% 100 μM” value worked out at 95.0 ± 0.9%.

In turn, `O=C(O)Cn1c(=O)c(Oc2cc(O)cc(O)c2)nc2cc(Cl)cnc21` [4k, 2-(7-chloro-2-(3,5-dihydroxyphenoxy)-3-oxopyrido[3,2-b]pyrazin-4(3H)-yl)acetic acid] gave a melting point of 232 to 236 °C. This compound also showed an IC50 in series [1] of 23 ± 3 nM. The IC50 in series [2] turned out to be 18.4 ± 1.34 µM. In series [3], the “DPPH/sca% 10 μM” value was 49.1 ± 2.4%, the “DPPH/sca% 50 μM” value was found to be 76.4 ± 0.9% and the “DPPH/sca% 100 μM” value is 94.8 ± 1.1%.

`O=C(O)Cn1c(=O)c(Oc2cc(O)cc(O)c2)nc2cc(Br)cnc21` [4l, 2-(7-bromo-2-(3,5-dihydroxyphenoxy)-3-oxopyrido[3,2-b]pyrazin-4(3H)-yl)acetic acid]: the melting point was 233 to 235 °C. Moreover, the IC50 in series [1] is 56 ± 5 nM. The IC50 in series [2] was determined as 19.8 ± 1.41 µM. In series [3], the “DPPH/sca% 10 μM” value is 46.8% and 46.8 ± 1.5%; the “DPPH/sca% 50 μM” value was 80.6% and 80.6 ± 2.0%; the “DPPH/sca% 100 μM” value is 95.3% and 95.3 ± 1.2%.

Compound `COc1cc(Oc2nc3cccnc3n(CC(=O)O)c2=O)cc(O)c1OC` [4m, 2-(2-(3-hydroxy-4,5-dimethoxyphenoxy)-3-oxopyrido[3,2-b]pyrazin-4(3H)-yl)acetic acid] registered a melting point of 237 to 244 °C. Further, in series [1], inhibition was half-maximal at 4530 ± 258 nM (IC50). In series [2], this compound had an IC50 of 31.6 ± 3.06 µM. Further, in series [3], the “DPPH/sca% 50 μM” value came out at 35.9 ± 1.1% and the “DPPH/sca% 100 μM” value was determined as 56.9 ± 1.8%.

Regarding `COc1c(O)cc(Oc2nc3cccnc3n(CC(=O)O)c2=O)cc1O` [4n, 2-(2-(3,5-dihydroxy-4-methoxyphenoxy)-3-oxopyrido[3,2-b]pyrazin-4(3H)-yl)acetic acid], the melting point was in the range of 235 to 241 °C. This compound also registered an IC50 in series [1] of 2360 ± 184 nM. Also, in series [2], it took 25.8 ± 1.65 µM to reach half-maximal inhibition (IC50). Besides, in series [3], the “DPPH/sca% 50 μM” value was 40.8 ± 1.6% and the “DPPH/sca% 100 μM” value was 65.7 ± 0.9%.

In the case of `O=C(O)Cn1c(=O)c(Oc2cc(O)c(O)c(O)c2)nc2cccnc21` [4o, 2-(3-oxo-2-(3,4,5-trihydroxyphenoxy)pyrido[3,2-b]pyrazin-4(3H)-yl)acetic acid], the melting point is 241 to 246 °C. In series [1], this compound showed an IC50 of 859 ± 58 nM. In addition, the IC50 in series [2] is 21.7 ± 1.47 µM. Besides, in series [3], the “DPPH/sca% 10 μM” value is given as 23.4 ± 2.0%, the “DPPH/sca% 50 μM” value is 65.2 ± 1.9% and the “DPPH/sca% 100 μM” value was 88.5 ± 1.4%.

With `CC(/C=C1\SC(=S)N(CC(=O)O)C1=O)=C\c1ccccc1` [Epalrestat, reference compound], the IC50 in series [2] was 55.7 ± 3.29 µM.

On to `Cc1c(C)c2c(c(C)c1O)CCC(C)(C(=O)O)O2` (centres unmarked) [Trolox, […], reference compound], for which, in series [3], the “DPPH/sca% 10 μM” value stood at 85.9 ± 0.6%, the “DPPH/sca% 50 μM” value is listed as 89.8 ± 1.0% and the “DPPH/sca% 100 μM” value stood at 96.7 ± 0.8%.

Usually IC50 stands for the concentration needed to halve the response being measured. High values mean weaker potency, low ones greater potency. A word on the melting point: it is the temperature of the solid-liquid transition.
